Assay results: patent US11298363B2, “Triazolobenzazepines as vasopressin V1a receptor antagonists” (RICHTER GEDEON NYRT., priority 2017, dated 2022)

Key:
[1] = target: T1, human vasopressin V1a receptor (Homo sapiens, UniProt P37288); test: Human vasopressin V1a receptor binding assay; conditions: 1321N1 cell membranes, [3H]vasopressin; read-out: Ki (nM) on hV1a cell line
Outline: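 Ki values come from IC50 via Cheng-Prusoff (KD from prior Scatchard), averaged over at least two independent runs. Human V1a membranes were incubated with radioligand 60 minutes at 27° C., bound ligand collected by filtration; (Arg^8)-vasopressin at 1.2×10^−6 M defined non-specific binding.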

[2] = target: T1, human vasopressin V1a receptor; test: Functional assay on human vasopressin V1a receptor expressing cell line (intracellular Ca2+ fluorescence); type: cell-based; conditions: 1321N1 cells, (Arg8)-vasopressin at EC80; read-out: IC50 (nM) on hV1a cell line

T1 sequence (P37288 whole entry): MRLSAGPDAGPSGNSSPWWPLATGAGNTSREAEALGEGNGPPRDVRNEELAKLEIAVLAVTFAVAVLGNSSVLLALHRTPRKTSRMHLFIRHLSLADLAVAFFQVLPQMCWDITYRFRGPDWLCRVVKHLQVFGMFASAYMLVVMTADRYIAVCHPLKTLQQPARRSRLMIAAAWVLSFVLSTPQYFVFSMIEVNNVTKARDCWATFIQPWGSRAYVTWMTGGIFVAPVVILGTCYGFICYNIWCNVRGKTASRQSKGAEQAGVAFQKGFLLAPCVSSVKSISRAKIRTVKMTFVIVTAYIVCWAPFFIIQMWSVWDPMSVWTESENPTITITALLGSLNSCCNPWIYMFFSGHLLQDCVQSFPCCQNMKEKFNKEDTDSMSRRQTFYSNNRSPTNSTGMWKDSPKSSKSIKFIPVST

Ki [1] [nM] | IC50 [2] [nM] | SMILES
0.7 | 1.5 | CN(C)CC(=O)OC1Cc2cc(Cl)ccc2-n2c(nnc2[C@H]2CC[C@H](Oc3ccccn3)CC2)C1 (stereo partly drawn) [Example 216, 8-chloro-1-[trans-4-(pyridin-2-yloxy)cyclohexyl]-5,6-dihydro-4H-[1,2,4]triazolo[4,3-a][1]benzazepin-5-yl N,N-dimethylglycinate]
0.3 | 1.4 | O=C(N[C@@H]1Cc2cc(Cl)ccc2-n2c(nnc2[C@H]2CC[C@H](Oc3ccccn3)CC2)C1)C(F)(F)F [Example 217, N-{(5R)-8-chloro-1-[trans-4-(pyridin-2-yloxy)cyclohexyl]-5,6-dihydro-4H-[1,2,4]triazolo[4,3-a][1]benzazepin-5-yl}-2,2,2-trifluoroacetamide]
97 | 1250 | COC1Cc2cc(Cl)ccc2-n2c(nnc2[C@H]2CC[C@@H](N3CCCC3=O)CC2)C1 (stereo partly drawn) [Example 218, 1-[cis-4-(8-chloro-5-methoxy-5,6-dihydro-H-[1,2,4]triazolo[4,3-a][1]benzazepin-1-yl)cyclohexyl]pyrrolidin-2-one]
0.2 | 22 | COC1Cc2cc(Cl)ccc2-n2c(nnc2[C@H]2CC[C@H](N3CCCC3=O)CC2)C1 (stereo partly drawn) [Example 219, 1-[trans-4-(8-chloro-5-methoxy-5,6-dihydro-4H-[1,2,4]triazolo[4,3-a][1]benzazepin-1-yl)cyclohexyl]pyrrolidin-2-one]
0.4 | 2.6 | O=C(N[C@@H]1Cc2cc(Cl)ccc2-n2c(nnc2[C@H]2CC[C@H](Oc3ccccn3)CC2)C1)C1CC(F)(F)C1 [Example 220, N-{(5R)-8-chloro-1-[trans-4-(pyridin-2-yloxy)cyclohexyl]-5,6-dihydro-4H-[1,2,4]triazolo[4,3-a][1]benzazepin-5-yl}-3,3-difluorocyclobutanecarboxamide]
0.9 | 9.8 | O=C(N[C@@H]1Cc2cc(Cl)ccc2-n2c(nnc2[C@H]2CC[C@H](Oc3ccccn3)CC2)C1)C1CCC(F)(F)CC1 [Example 221, N-{(5R)-8-chloro-1-[trans-4-(pyridin-2-yloxy)cyclohexyl]-5,6-dihydro-4H-[1,2,4]triazolo[4,3-a][1]benzazepin-5-yl}-4,4-difluorocyclohexanecarboxamide]
5.8 | 40 | COC1Cc2cc(Cl)ccc2-n2c(nnc2[C@H]2CC[C@](OC)(C(F)(F)F)CC2)C1 (stereo partly drawn) [Example 222, 8-chloro-5-methoxy-1-[cis-4-methoxy-4-(trifluoromethyl)cyclohexyl]-5,6-dihydro-4H-[1,2,4]triazolo[4,3-a][1]benzazepine]
1.6 | 8.1 | COC1Cc2cc(Cl)ccc2-n2c(nnc2[C@H]2CC[C@@](OC)(C(F)(F)F)CC2)C1 (stereo partly drawn) [Example 223, 8-chloro-5-methoxy-1-[trans-4-methoxy-4-(trifluoromethyl)cyclohexyl]-5,6-dihydro-4H-[1,2,4]triazolo[4,3-a][1]benzazepine]
0.7 | 3.6 | FC(F)(F)CN[C@H]1Cc2cc(Cl)ccc2-n2c(nnc2[C@H]2CC[C@H](Oc3ccccn3)CC2)C1 [Example 224, (5S)-8-chloro-1-[trans-4-(pyridin-2-yloxy)cyclohexyl]-N-(2,2,2-trifluoroethyl)-5,6-dihydro-4H-[1,2,4]triazolo[4,3-a][1]benzazepin-5-amine]
48 | 854 | CC1(C(=O)N[C@H]2Cc3cc(Cl)ccc3-n3c(nnc3[C@H]3CC[C@H](Oc4ccccn4)CC3)C2)COC1 [Example 225]
0.5 | 4.2 | CC1(C(=O)N[C@@H]2Cc3cc(Cl)ccc3-n3c(nnc3[C@H]3CC[C@H](Oc4ccccn4)CC3)C2)COC1 [Example 226, N-{(5R)-8-chloro-1-[trans-4-(pyridin-2-yloxy)cyclohexyl]-5,6-dihydro-4H-[1,2,4]triazolo[4,3-a][1]benzazepin-5-yl}-3-methyloxetan-3-carboxamide]
1 | 51 | COc1ccc(CN[C@H]2CC[C@H](c3nnc4n3-c3ccc(Cl)cc3CC3(C4)OCCO3)CC2)cc1 [Example 227, Trans-4-(8′-chloro-4′H,6′H-spiro[1,3-dioxolane-2,5′-[1,2,4]triazolo[4,3-a][1]benzazepin]-1′-yl)-N-(4-methoxybenzyl)cyclohexanamine]
0.8 | 6.1 | CC(C)(C)OC(=O)NCCN[C@@H]1Cc2cc(Cl)ccc2-n2c(nnc2[C@H]2CC[C@H](Oc3ccccn3)CC2)C1 [Example 228, Tert-butyl [2-({(5R)-8-chloro-1-[trans-4-(pyridin-2-yloxy)cyclohexyl]-5,6-dihydro-4H-[1,2,4]triazolo[4,3-a][1]benzazepin-5-yl}amino)ethyl]carbamate]
0.4 | 2.1 | CCO[C@]1(CC)CC[C@@H](c2nnc3n2-c2ccc(Cl)cc2CC2(C3)OCCO2)CC1 [Example 229, 8′-chloro-1′-(trans-4-ethoxy-4-ethylcyclohexyl)-4′H,6′H-spiro[1,3-dioxolane-2,5′-[1,2,4]triazolo[4,3-a][1]benzazepine]]
0.7 | 12 | COc1ccc(CN(C)[C@H]2CC[C@H](c3nnc4n3-c3ccc(Cl)cc3CC3(C4)OCCO3)CC2)cc1 [Example 230, Trans-4-(8′-chloro-4′H,6′H-spiro[1,3-dioxolane-2,5′-[1,2,4]triazolo[4,3-a][1]benzazepin]-1′-yl)-N-(4-methoxybenzyl)-N-methylcyclohexanamine]
1.1 | 5.9 | Clc1ccc2c(c1)CC1(Cc3nnc(C4CCN(Cc5cccnc5)C4)n3-2)OCCO1 (stereo not drawn) [Example 231, 8′-chloro-1′-[1-(pyridin-3-ylmethyl)pyrrolidin-3-yl]-4′H,6′H-spiro[1,3-dioxolane-2,5′-[1,2,4]triazolo[4,3-a][1]benzazepine]]
1.3 | 9.2 | COC1Cc2cc(Cl)ccc2-n2c(nnc2N2CCN(c3ccccn3)CC2)C1 (stereo not drawn) [Example 232, 8-chloro-5-methoxy-1-[4-(pyridin-2-yl)piperazin-1-yl]-5,6-dihydro-4H-[1,2,4]triazolo[4,3-a][1]benzazepine]
6.9 | 53 | CC[C@]1(OC)CC[C@H](c2nnc3n2-c2ccc(Cl)cc2CC(N(C)C)C3)CC1 (stereo partly drawn) [Example 233, 8-chloro-1-(trans-4-ethyl-4-methoxycyclohexyl)-N,N-dimethyl-5,6-dihydro-4H-[1,2,4]triazolo[4,3-a][1]benzazepin-5-amine]
3.8 | 57 | CCO[C@]1(C)CC[C@@H](c2nnc3n2-c2ccc(Cl)cc2CC(N(C)C)C3)CC1 (stereo partly drawn) [Example 234, 8-chloro-1-(trans-4-ethoxy-4-methylcyclohexyl)-N,N-dimethyl-5,6-dihydro-4H-[1,2,4]triazolo[4,3-a][1]benzazepin-5-amine]
0.3 | 22 | CO[C@]1(C(F)(F)F)CC[C@@H](c2nnc3n2-c2ccc(Cl)cc2CC2(C3)OCCO2)CC1 [Example 235, 8′-chloro-1′-[trans-4-methoxy-4-(trifluoromethyl)cyclohexyl]-4′H,6′H-spiro[1,3-dioxolane-2,5′-[1,2,4]triazolo[4,3-a][1]benzazepine]]
0.9 | 4.2 | CO[C@]1(C(F)(F)F)CC[C@H](c2nnc3n2-c2ccc(Cl)cc2CC2(C3)OCCO2)CC1 [Example 236, 8′-chloro-1′-[cis-4-methoxy-4-(trifluoromethyl)cyclohexyl]-4′H,6′H-spiro[1,3-dioxolane-2,5′-[1,2,4]triazolo[4,3-a][1]benzazepine]]
